Source: US12691063B1, “Methods of using radiprodil in the treatment of disorders” (GRIN Therapeutics, Inc., priority 2023, dated 2026)
“And” between values parts separate entries of the source, which are not always exact repeats. Equal values may be shown once.

Tests used:
[1] = 4-week juvenile rat toxicology study; type: in vivo; details: 0.05 mg/kg bid starting dose
Method: The starting dose for each participant enrolled in the study will be set at 0.05 mg/kg bid. […] In patients with neuropathic pain, a total daily dose of 135 mg (45 mg tid) up to 14 weeks has been previously administered. […] Dose Escalation
For the sites not located in the US, based on the dedicated PBPK model, the increment will be a dose expected to give no more than a 2.5-fold higher plasma concentration.

[2] = test system: patients with GRIN-related neurodevelopmental disorder and GoF variants, countable motor seizures (CMS); test: Open-label phase 1B study, seizure cohort; type: in vivo, human
Excerpt: Investigational Product (IP): Radiprodil. This example describes an open-label, multicenter phase 1B study being conducted to evaluate the safety, tolerability, and pharmacokinetics (PK) of multiple individually titrated doses of radiprodil and to assess the treatment effect on seizures in participants with drug-resistant seizures caused by gain-of-function (GoF) variants in the GRIN1, GRIN2A, GRIN2B, or GRIN2D genes (GRIN2B GoF variants in the US only).
(§1) This is a global, open-label, multicenter, phase 1B study to evaluate the safety, tolerability, and PK of multiple individually titrated doses of radiprodil and to assess the treatment effect on seizures and behavioral symptoms in 2 cohorts of pediatric participants: 1 cohort of participants with drug resistant seizures (with or without behavioral symptoms) (Cohort 1) and 1 cohort of participants with behavioral symptoms (but no qualifying seizures) (Cohort 2) caused by GoF variants in the GRIN1, 2A, 2B, or 2D genes (GRIN2B GoF variants only in the US). These GoF variants are gene mutations that cause an increased sensitivity of NMDA receptors to glutamate or through decreased inhibition by magnesium, altered affinity to glycine, or other relevant changes considered to increase NMDA transmission. Drug-resistant seizures are defined as a failure to respond to at least 2 antiseizure medication (ASM) therapies taken at adequate doses for an appropriate duration with assured medication adherence as determined by the treating physician. Participants with seizures to be enrolled in the first cohort should have at least 1 observable motor seizure per week and ≥4 observable motor seizures in the prospective 4-week Observation Period.
A seizure cohort of patients from 6 months to 12 years of age with known GoF variants confirmed via method described in Myers, et al., Hum Mol Genetics. 2023, 32:2857-2871, was enrolled. The patients had drug-resistant seizures with or without behavioral symptoms. Patients also had ≥1 weekly countable motor seizure (CMS) with ≥4 generalized or focal seizures during the observation period. Motor seizures included drop seizures; generalized onset seizures included tonic-clonic, tonic, bilateral clonic, atonic, myoclonic-atonic, and myoclonic-tonic-clonic seizures; and focal seizures included seizures with bilateral hyperkinetic motor features and clonic seizures.
Primary endpoints included safety, tolerability, and radiprodil plasma concentrations. Key secondary endpoints (aka, change from baseline in observable daily CMS frequency using an electronic diary (eDiary)), included ≥50%, ≥90%, and 100% reductions from baseline in seizure frequency; proportion of seizure-free days; and Clinical Global Impressions of Change (CGI-C) and Caregiver Global Impressions of Change (CaGI-C), from baseline to the end of the maintenance period.

PTZ-induced convulsions = test: Juvenile PTZ rat model of generalized clonic-tonic seizures; type: in vivo; details: 10 mg/kg; postnatal day 12 and postnatal day 18 rats
Method: (§2) Radiprodil anticonvulsant efficacy was specifically tested in rats at different time points during postnatal development, using pentylenetetrazole (PTZ) as a convulsant, to induce generalized clonic-tonic seizures. The activity of radiprodil in this juvenile PTZ rat model was tested up to 30 mg/kg, showing efficacy at a dose of 1 mg/kg. The calculated free plasma fraction of an orally administered 1 mg/kg dose is expected to give around 60% occupancy of the NR2B receptor, based on an ex-vivo occupancy study in rodents and assuming a 1:1 brain to plasma ratio, see below for further details.

[3] = test system: patients with GRIN-related neurodevelopmental disorder and GoF variants, behavioral symptoms; test: Open-label phase 1B study, behavioral cohort; type: in vivo, human
Excerpt: as §1
A behavioral cohort of patients from 6 months to 12 years of age with known GoF variants confirmed via method described in Myers, et al., Hum Mol Genetics. 2023, 32:2857-2871, was enrolled. […] Motor seizures included drop seizures; generalized onset seizures included tonic-clonic, tonic, bilateral clonic, atonic, myoclonic-atonic, and myoclonic-tonic-clonic seizures; and focal seizures included seizures with bilateral hyperkinetic motor features and clonic seizures.

NR2B receptor = molecular target: T1, NR2B receptor (Rattus norvegicus, UniProt P35439+Q00960); test: NR2B occupancy calculated from ex-vivo occupancy study in rodents; details: po; orally administered 1 mg/kg dose; calculated free plasma fraction; 1:1 brain to plasma ratio assumed
T1 construct: from tissue; host or cells: rodent brain (ex vivo)
Method: as §2

[4] = all unrelated to radiprodil treatment

T1 sequence (Q00960 27-1482, other chains not shown): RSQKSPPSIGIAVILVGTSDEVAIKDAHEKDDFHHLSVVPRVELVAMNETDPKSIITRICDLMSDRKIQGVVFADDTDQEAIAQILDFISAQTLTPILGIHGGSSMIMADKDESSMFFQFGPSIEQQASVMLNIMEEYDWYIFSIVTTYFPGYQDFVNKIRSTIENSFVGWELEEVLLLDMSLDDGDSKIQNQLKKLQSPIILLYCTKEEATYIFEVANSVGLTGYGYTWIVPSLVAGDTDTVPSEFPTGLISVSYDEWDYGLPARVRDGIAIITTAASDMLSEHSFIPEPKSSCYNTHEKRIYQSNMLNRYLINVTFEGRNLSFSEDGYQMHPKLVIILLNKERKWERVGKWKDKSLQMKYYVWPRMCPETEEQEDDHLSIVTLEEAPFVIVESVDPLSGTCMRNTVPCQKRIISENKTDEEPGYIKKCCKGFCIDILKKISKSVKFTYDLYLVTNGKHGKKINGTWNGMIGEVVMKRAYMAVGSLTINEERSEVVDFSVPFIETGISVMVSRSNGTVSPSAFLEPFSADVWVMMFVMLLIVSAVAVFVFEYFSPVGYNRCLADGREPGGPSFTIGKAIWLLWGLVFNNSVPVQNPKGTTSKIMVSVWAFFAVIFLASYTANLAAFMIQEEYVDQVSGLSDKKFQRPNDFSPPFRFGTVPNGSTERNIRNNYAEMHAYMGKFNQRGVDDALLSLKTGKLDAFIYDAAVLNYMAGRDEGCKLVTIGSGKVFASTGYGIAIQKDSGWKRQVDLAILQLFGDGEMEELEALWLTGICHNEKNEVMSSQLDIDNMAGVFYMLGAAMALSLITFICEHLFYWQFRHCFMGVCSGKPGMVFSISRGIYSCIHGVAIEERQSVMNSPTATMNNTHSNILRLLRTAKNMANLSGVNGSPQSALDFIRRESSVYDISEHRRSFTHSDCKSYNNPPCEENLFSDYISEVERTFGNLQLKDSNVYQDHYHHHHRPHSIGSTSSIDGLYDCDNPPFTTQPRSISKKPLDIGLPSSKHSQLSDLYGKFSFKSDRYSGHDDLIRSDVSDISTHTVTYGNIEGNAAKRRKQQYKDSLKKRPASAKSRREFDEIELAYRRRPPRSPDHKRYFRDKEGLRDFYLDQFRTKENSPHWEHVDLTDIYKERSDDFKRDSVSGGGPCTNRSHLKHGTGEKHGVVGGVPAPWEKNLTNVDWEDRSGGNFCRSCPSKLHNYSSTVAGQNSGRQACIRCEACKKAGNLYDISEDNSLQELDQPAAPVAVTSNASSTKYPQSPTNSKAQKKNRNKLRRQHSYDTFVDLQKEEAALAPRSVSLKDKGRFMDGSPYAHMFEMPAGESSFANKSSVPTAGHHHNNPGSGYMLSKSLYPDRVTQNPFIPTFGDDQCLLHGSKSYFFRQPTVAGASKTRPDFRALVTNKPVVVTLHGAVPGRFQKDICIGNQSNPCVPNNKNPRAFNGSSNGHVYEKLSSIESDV

With O=C(Nc1ccc2[nH]c(=O)oc2c1)C(=O)N1CCC(Cc2ccc(F)cc2)CC1 [radiprodil, Radiprodil] the “exposure level (total Cmax and AUC) lower than NOAEL exposure in juvenile rat toxicology study” value [1] was “more than 20 fold”, the “patients seizure-free during 80% of days” value ([2]; 8-week maintenance period) was 6 of 7 and the tolerability ([2]; Example 4) was “generally well-tolerated”. For the same compound, the “Any TEAE” value ([2]; Seizure Cohort (n = 8)) was 8 (100) n (%), the “TEAE Abnormal behavior” value ([2]; Seizure Cohort (n = 8)) was 1 (12.5) n (%) and the “TEAE Agitation” value ([2]; Seizure Cohort (n = 8)) was 1 (12.5) n (%). The “TEAE Cough” value ([2]; Seizure Cohort (n = 8)) was 2 (25.0) n (%), the “TEAE Diarrhoea” value ([2]; Seizure Cohort (n = 8)) was 2 (25.0) n (%) and the “TEAE Dystonia” value ([2]; Seizure Cohort (n = 8)) was 2 (25.0) n (%). For the same compound, the “TEAE Fatigue” value ([2]; Seizure Cohort (n = 8)) was 1 (12.5) n (%), the “TEAE Gastroenteritis” value ([2]; Seizure Cohort (n = 8)) was 2 (25.0) n (%) and the “TEAE Pyrexia” value ([2]; Seizure Cohort (n = 8)) was 4 (50.0) n (%). The “TEAE Respiratory tract infection” value ([2]; Seizure Cohort (n = 8)) was 2 (25.0) n (%), the “seizure cohort patients with reductions from baseline in CMS frequency” value ([2]; after radiprodil treatment) was 6 of the 7 and 6 of 7 and the “patients who experienced SAEs” value [2, 4] was “Three”. For the same compound, the “Caregiver Global Impressions of Change (CaGI-C)” value ([2]; caregivers, seizure cohort) was “clinical improvement in most patients”, the “Clinical Global Impressions of Change (CGI-C)” value ([2]; clinicians, seizure cohort) was “clinical improvement in most patients” and the “reduction in CMS frequency in most patients” value ([2]; seizure cohort) was ≥ 50%. The “tonic phases of PTZ-induced convulsions” value (PTZ-induced convulsions) was “completely blocked”, the “Any TEAE” value ([3]; Behavioral Cohort (n = 7)) was 6 (85.7) n (%) and the “TEAE Abnormal behavior” value ([3]; Behavioral Cohort (n = 7)) was 2 (28.6) n (%). For the same compound, the “TEAE Agitation” value ([3]; Behavioral Cohort (n = 7)) was 2 (28.6) n (%), the “TEAE Cough” value ([3]; Behavioral Cohort (n = 7)) was 1 (14.3) n (%) and the “TEAE Diarrhea” value ([3]; Behavioral Cohort (n = 7)) was 2 (28.6) n (%). The “TEAE Dystonia” value ([3]; Behavioral Cohort (n = 7)) was 1 (14.3) n (%), the “TEAE Fatigue” value ([3]; Behavioral Cohort (n = 7)) was 2 (28.6) n (%) and the “TEAE Gastroenteritis” value ([3]; Behavioral Cohort (n = 7)) was 1 (14.3) n (%). The “TEAE Pyrexia” value ([3]; Behavioral Cohort (n = 7)) was 1 (14.3) n (%), the “TEAE Respiratory tract infection” value ([3]; Behavioral Cohort (n = 7)) was 2 (28.6) n (%) and the tolerability ([3]; Example 9) was “generally well-tolerated”. The “patients who experienced SAEs” value [3, 4] was “Three”, the “Caregiver Global Impressions of Change (CaGI-C)” value ([3]; caregivers, behavioral cohort) was “clinical improvement in most patients” and the “Clinical Global Impressions of Change (CGI-C)” value ([3]; clinicians, behavioral cohort) was “clinical improvement in most patients”. The receptor occupancy at 1 mg/kg (NR2B receptor) was ~60%.
